Patent publication US8530513B1, “Pharmaceutical uses of diterpene excavatolide B from a coral or an analogue thereof” (National Sun Yat-Sen University, priority 2012, dated 2013)

Legend:
TNF-α = experiment: LPS-induced TNF-α expression in mouse bone marrow-derived dendritic cells, ELISA; format: cell-based; details: LPS 100 ng/ml plus BrD1 at different concentrations, 24 h
Source text: For mouse bone marrow-derived DCs (BMDCs), five to six-week-old female C57BL/6JNarl mice were purchased from the National Laboratory Animal Center, Taiwan and kept under SPF conditions. BMDCs were generated from bone marrow cells of C57BL/6 mice as described previously (Yin S Y, Wang W H, Wang B X, Aravindaram K, Hwang P I, Wu H M, Yang N S. BMC genomics 2010, 11:612). In brief, bone marrow was isolated from femurs and tibiae which were then flushed with RPMI-1640 medium using a syringe with a 0.45-mm needle on Day 0. Red blood cells in suspension were lysed for […] with ACK lysing buffer (150 mM NH4Cl, 1.0 mM KHCO3, 0.1 mM EDTA). Bone marrow cells were suspended at a density of 1×10^7 cells/30 ml in RPMI-1640 containing 10% FBS, 2 mM L-glutamine, 1% of nonessential amino acids, 100 U/mL penicillin and 100 μg/mL streptomycin supplemented with 20 ng/mL of mGM-CSF in 15-cm dishes at 37° C. with 5% CO2. On day 2, two-thirds of the medium was removed and 30 mL fresh medium with mGM-CSF was added to the cells. On day 5, culture plates were gently swirled and the floating and loosely adherent cells were discarded. Aliquots of 75% culture media were replenished with 20 ng/mL mGM-CSF and 20 ng/mL mIL-4. […]

IκBα = experiment: TPA-stimulated IκBα phosphorylation in mouse skin, western blot; format: in vivo; details: topical for 2 h after TPA
Description: (§1) Shaven abdominal skins of female C57BL/6JNarl mice were not treated or topically treated with vehicle (acetone, 200 μl/site) or TPA (10 nmol in 200 μl acetone/site) at indicated time points or treated first with TPA for 10 min, then with the indicated concentrations of BrD1 at the indicated time points. Abdominal skin samples were collected, homogenated and lysed to prepare total proteins. Protein samples were subsequently resolved by SDS-PAGE using a gradient gel. The resolved proteins were transferred to a PVDF Immobilon-P membrane (Millipore, Bedford, Calif.), and the membrane was blocked with 5% non-fat dry milk in PBST buffer (phosphate-buffered saline (PBS) containing 0.1% Tween 20) for 60 minutes at room temperature. The membranes were incubated overnight at 4° C. with commercially available antibodies (1:1000 dilutions). Loading of equal amounts of protein was assessed using mouse β-actin. The blots were rinsed three times with PBST buffer for 5 minutes. Washed blots were incubated with HRP-conjugated secondary antibody (1:100,000 dilution), then washed again three times with PBST buffer. […] Quantification of bands was performed using Image J software.
(§2) We therefore evaluated whether BrD1 could interfere with TPA-induced activation of Akt and Erk in inflamed skin. […] We thus determined the phosphorylation level of Akt, Erk, NF-κB and IκBα in skins subjected to different treatments. […]

Erk1/2 = experiment: TPA-induced Erk phosphorylation in mouse skin, western blot; format: in vivo; details: topical for 2 h after TPA
Description: as §1, §2

Akt = experiment: TPA-stimulated Akt phosphorylation in mouse skin, western blot; format: in vivo; details: topical for 2 h after TPA
Description: as §1, §2

SMILES: CCCC(=O)O[C@H]1C/C(C)=C\[C@@H]2OC(=O)[C@]3(C)O[C@]23[C@@H](OC(C)=O)[C@H]2[C@@H](C)[C@@H](O)C[C@H](OC(C)=O)[C@]2(C)[C@H]1OC(C)=O [BrD1, excavatolide B]
- TNF-α expression in LPS-stimulated dendritic cells (TNF-α): inhibited TNF-a expression to a much lesser extent
- TNF-α expression in LPS-stimulated dendritic cells (TNF-α; listed as Excavatolide B): inhibits TNF-α expression to a much lesser extent
- TPA-stimulated phosphorylation of IκBα (IκBα): significantly inhibited the TPA-stimulated phosphorylation of Akt and IκBα
- TPA-stimulated phosphorylation of IκBα (IκBα; listed as excavatolide B): significantly inhibits the TPA-stimulated phosphorylation of Akt and IκBα
- TPA-induced Erk phosphorylation (Erk1/2): inhibit TPA-induced Erk phosphorylation only slightly
- TPA-stimulated phosphorylation of Akt (Akt): significantly inhibited the TPA-stimulated phosphorylation of Akt
- TPA-stimulated phosphorylation of Akt (Akt; listed as excavatolide B): significantly inhibits the TPA-stimulated phosphorylation of Akt
